According to patent publication US6911474B2, “Methods, compounds, and compositions for reducing body fat and modulating fatty acid metabolism” (The Regents of the University of California, priority 2001, dated 2005):
Ends that are not written are not given here.

Assays:
[1] = Food intake in capsaicin-treated rats (sensory fibers destroyed); type: in vivo, rat; details: OEA 10 mg per kg, i.p., FIG. 6a,c
Excerpt: Chemicals. FAEs and [^2H4] FAEs were synthesized in the laboratory (Giuffrida et al., “Lipid Second Messengers” (ed. Laychock, S. G. & Rubin, R. P.) 113-133 (CRC Press LLC, Boca Raton, Fla., 1998)); 1,2-dioleyl-sn-glycero-phosphoethanolamine-N-oleyl was purchased from Avanti Polar Lipids (Alabaster, Ala.); SR141716A was provided by RBI (Natick, Mass.) as part of the Chemical Synthesis Program of the NIMH (N01MH30003); SR144528 was a generous gift of Sanofi Recherche; all other drugs were from Tocris (Ballwin, Mo.) or Sigma (Saint Louis, Mo.). FAE were dissolved in dimethylsulphoxide (DMSO) and administered in 70% DMSO in sterile saline (acute treatments) or 5% Tween 80/5% propylenglycol in sterile saline (subchronic treatments) (1 ml per kg, i.p.). Capsaicin was administered in 10% Tween 80/10% ethanol/80% saline; SR141716A, SR144528, CCK-8 and CP-93129 in 5% Tween 80/5% propylenglycol/90% saline (1 ml per kg, i.p.).
These findings support the hypothesis that OEA causes hypophagia by acting at a peripheral site, and that sensory fibers are required for this effect.

[2] = Conditioned taste aversion; type: in vivo, rat; details: OEA 20 mg per kg, i.p.; lithium chloride 0.4 M, 7.5 ml per kg; FIG. 4c
Description: Conditioned taste aversion. Rats were water-deprived for 24 h and then accustomed to drink from a graded bottle during a 30-min test period for four days. On day five, water was substituted with a 0.1% saccharin solution and, 30 min later, the animals received injections of vehicle, OEA (20 mg per kg) or lithium chloride (0.4 M, 7.5 ml per kg). During the following two days, water consumption was recorded over 30-min test periods. The animals were then presented with water or saccharin, and drinking measured.

[3] = test system: Soleus muscle; assay: [14C]oleate oxidation to CO2 in soleus muscle; type: cell-based, rat; details: soleus muscle, structure-activity relationship; FIG. 8
[4] = Acute food intake in 24-h food-deprived rats after i.p. administration; type: in vivo, rat; details: 24-h food-deprived rats, 15 min before food presentation, FIG. 4a,b
Description: Feeding experiments. Acute experiments. Food intake was measured in 24-h food-deprived rats (Navarro et al., J. Neurochem., 67:1982-1991 (1996)), administering drugs 15 min before food presentation. Subchronic experiments. Ad libitum fed rats received vehicle injections for three days. On day four, the animals were divided in two equal groups and gave them daily injections of vehicle or OEA (5 mg per kg at 1900 h) for 7 consecutive days, while measuring body weight, food intake and water intake.
The effects of systemically administered OEA on food intake in rats can be assessed using a 24 h fast. […] To define the selectivity of this response, various OEA analogs were evaluated for their ability to produce hypophagia.

Row | Compound | food intake response of capsaicin-treated rats [1] | conditioned taste aversion [2] | mimicking of the effect of OEA on skeletal muscle fatty acid oxidation [3] | suppression of food intake (hypophagia) [4]
1 | O=c1ccc2[nH]cc(C3=CCNCC3)c2[nH]1 [CP-93129] | responded normally |  |  | 
2 | [Cl-].[Li+] [lithium chloride] |  | readily provoked |  | 
3 | CCCCCCCC/C=C\CCCCCCCC(=O)O [oleic acid, reference compound] |  |  | not | no effect
4 | cholecystokinin-8 (DYMGWMDF; ends and bridges not checked; UniProt P06307 96-103, looked up) [CCK-8, peripherally administered cholecystokinin-8] | failed to respond |  |  | 
5 | CCCCC/C=C\C/C=C\C/C=C\C/C=C\CCCC(=O)NCCO [Anandamide, arachidonylethanolamide, reference compound] |  |  | not | no effect
6 | CCCCCCCCCCCCCCCC(=O)NCCO [Palmitylethanolamide, palmitylethanolamide] |  |  | only partially | active but significantly less potent than OEA
